From patent US20130178450A1, “METHODS FOR INCREASING THE PRODUCTION OR ACTIVITY OF CATALASE” (Nestec SA, priority 2010, published 2013)

Experiments:
Assay type in all cases: cell-based, canine
catalase (CAT) [1] = experiment: Enzymatic activity of catalase in treated cbTCC cells (Cayman kit, Purpald); settings: 24 hours, mean ± standard deviation, control 11.20 ± 0.43
Procedure: Treatments were done in at least triplicates. […] The enzymatic activity of catalase was determined using assay kits from Cayman Chemical Co., Ann Arbor, Mich., according to manufacturer's directions. The assay utilized the peroxidatic function of CAT for determination of enzymatic activity, based on the reaction of the enzyme with methanol in the presence of an optimal concentration of H2O2. […] Purpald specifically forms a bicyclic heterocycle with aldehydes, which upon oxidation changes from colorless to a purple color. The absorbance was read at 540 nm using a spectrophotometric plate reader. Results were calculated from standard curve from known samples and by using the provided equations. From that, the enzymatic activity of CAT was derived as nmol/min/ml CAT. Samples were done in triplicate. A one-tail t-test assuming equal variance was performed to determine significance.

CAT = experiment: Quantitative PCR gene expression of CAT in cbTCC cells; settings: 24 hours, normalized to Cyclophilin A, mean ± SEM, control 1.86 ± 0.11
Cu/ZnSOD = experiment: Quantitative PCR gene expression of Cu/ZnSOD in cbTCC cells; settings: 24 hours, normalized to Cyclophilin A, mean ± SEM, control 1.11 ± 0.02
MnSOD = experiment: Quantitative PCR gene expression of MnSOD in cbTCC cells; settings: 24 hours, normalized to Cyclophilin A, mean ± SEM, control 1.28 ± 0.05
PTHrP = experiment: Quantitative PCR gene expression of PTHrP in cbTCC cells; settings: 24 hours, normalized to Cyclophilin A, mean ± SEM, control 1.35 ± 0.09
catalase (CAT) [2] = experiment: Western blot analysis of catalase protein expression in cbTCC cells; settings: 10^−9M, 24 hours, normalized to β-actin, control = 100 percent, ± standard deviation
Procedure: (§1) Treatments were done in at least triplicates. […] Harvested cells were homogenized, and analyzed for the production of manganese superoxide dismutase (MnSOD), copper/zinc superoxide dismutase (Cu/ZnSOD), catalase (CAT), and glutathione peroxidase (GPX). Cell lysates were collected after centrifugation, and total protein was quantitated. […] Transblotted membranes were blocked overnight at 4° C. with the addition of 5% skim milk in Tris-buffered saline (TBS). The membranes were cut at the molecular weight of 37 kD (green band) and 25 kD (pink band). The top part of the membranes were stained for CAT, GPX, and β-actin, and the bottom part for MnSOD and Cu/ZnSOD. The primary antibodies for specific proteins were used at the following dilutions: […] Secondary antibodies are their respective IgG-HRP conjugates used at 1:2000. […] CAT, MnSOD and Cu/ZnSOD, n=7; GPX, n=4. Prior to transforming data as percent of control, a one-tail paired t-test assuming equal variance was performed to determine significance.

[3] = test system: manganese superoxide dismutase (MnSOD); experiment: Western blot analysis of MnSOD protein expression in cbTCC cells; settings: 10^−9M, 24 hours, normalized to β-actin, control = 100 percent, ± standard deviation
Procedure: as §1

[4] = test system: copper/zinc superoxide dismutase (Cu/ZnSOD); experiment: Western blot analysis of Cu/ZnSOD protein expression in cbTCC cells; settings: 10^−9M, 24 hours, normalized to β-actin, control = 100 percent, ± standard deviation
Procedure: as §1

[5] = test system: glutathione peroxidase (GPX); experiment: Western blot analysis of GPX protein expression in cbTCC cells; settings: 10^−9M, 24 hours, normalized to β-actin, control = 100 percent, ± standard deviation
Procedure: as §1

VDR = experiment: Quantitative PCR gene expression of VDR in cbTCC cells; settings: 24 hours, normalized to Cyclophilin A, mean ± SEM, control 2.09 ± 0.19

| SMILES | Enzymatic activity of catalase (catalase (CAT) [1]; 10^−7M) [nmol/min/mL] | Enzymatic activity of catalase (catalase (CAT) [1]; 10^−9M) [nmol/min/mL] | CAT gene expression value by quantitative PCR (CAT; 10^−7 M) | CAT gene expression value by quantitative PCR (CAT; 10^−9 M) | Cu/ZnSOD gene expression value by quantitative PCR (Cu/ZnSOD; 10^−7 M) | Cu/ZnSOD gene expression value by quantitative PCR (Cu/ZnSOD; 10^−9 M) | MnSOD gene expression value by quantitative PCR (MnSOD; 10^−7 M) | MnSOD gene expression value by quantitative PCR (MnSOD; 10^−9 M) | PTHrP gene expression value by quantitative PCR (PTHrP; 10^−7 M) | PTHrP gene expression value by quantitative PCR (PTHrP; 10^−9 M) | Catalase protein expression, percent intensity of the protein band relative to the control (catalase (CAT) [2]) [%] | MnSOD protein expression, percent intensity of the protein band relative to the control [3] [%] | Cu/ZnSOD protein expression, percent intensity of the protein band relative to the control [4] [%] | GPX protein expression, percent intensity of the protein band relative to the control [5] [%] | VDR gene expression value by quantitative PCR (VDR; 10^−7 M) | VDR gene expression value by quantitative PCR (VDR; 10^−9 M) |
| --- | --- | --- | --- | --- | --- | --- | --- | --- | --- | --- | --- | --- | --- | --- | --- | --- |
| C=C1/C(=C\C=C2/CCC[C@]3(C)[C@@H]([C@H](C)CCCC(C)(C)O)CC[C@@H]23)C[C@@H](O)C[C@@H]1O [Calcitriol, 1α,25-dihydroxyvitamin D3] | 12.24 ± 0.80 | 12.51 ± 0.42 | 2.60 ± 0.11 | 2.13 ± 0.06 | 1.18 ± 0.03 | 1.16 ± 0.02 | 1.05 ± 0.03 | 1.15 ± 0.04 | 1.16 ± 0.05 | 1.36 ± 0.11 | – | – | – | – | – | – |
| C=C1C(=CC=C2CCCC3(C)C(C(C)CC#CC(C)(C)O)=CCC23)CC(O)CC1O (stereo not drawn) [Analog V, 1α,25-dihydroxy-16-ene-23-yne-vitamin D3] | – | 13.93 ± 0.53 | – | – | – | – | – | – | – | – | – | – | – | – | – | – |
| C=C1/C(=C\C=C2/CCC[C@]3(C)[C@@H]([C@H](C)/C=C/C=C/C(O)(CC)CC)CC[C@@H]23)C[C@@H](O)C[C@@H]1O [Seocalcitol, 1α,25-dihydroxy-22,24-diene-24,26,27-trihomovitamin D] | – | 13.99 ± 0.99 | 2.66 ± 0.08 | 2.55 ± 0.13 | 1.17 ± 0.01 | 1.20 ± 0.07 | 1.11 ± 0.05 | 1.16 ± 0.05 | 1.20 ± 0.07 | 1.30 ± 0.02 | 162.68 ± 39.88 | 113.48 ± 20.56 | 101.27 ± 26.41 | 81.85 ± 37.45 | 1.99 ± 0.09 | 1.45 ± 0.10 |
